Results taken from US9309227B2, “N-biphenylmethylbenzimidazole modulators of PPARG” (The Scripps Research Institute, priority 2011, dated 2016).

Columns and labels:
GST-PPARG-LBD = molecular target: T1, GST-PPARG-LBD (Homo sapiens, UniProt P37231); assay: Lanthascreen PPARG competitive binding assay (Invitrogen); settings: Table 3; read-out: IC50 (nM) Lantha
T1 construct: A mixture of 5 nM GST-PPARG-LBD; purchased Invitrogen
T1 sequence (P37231 238-503 limits assumed): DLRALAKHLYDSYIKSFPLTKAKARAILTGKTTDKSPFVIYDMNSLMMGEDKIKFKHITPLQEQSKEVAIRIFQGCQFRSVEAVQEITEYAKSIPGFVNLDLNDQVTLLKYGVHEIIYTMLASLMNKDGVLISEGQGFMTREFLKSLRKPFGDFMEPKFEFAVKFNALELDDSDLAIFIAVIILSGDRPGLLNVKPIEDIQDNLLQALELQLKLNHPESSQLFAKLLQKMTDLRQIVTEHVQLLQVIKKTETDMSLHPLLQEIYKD
Description: Lanthascreen PPARG Competitive Binding Assay (Invitrogen)
The assay was performed according to manufacturer protocol. A mixture of 5 nM GST-PPARG-LBD, 5 nM Tb-GST-antibody, […] Pan-PPAR Green, and serial dilutions of the experimental compound, beginning at 10 μM downwards, was added to wells of black 384-well low-volume plates (Greiner) to a total volume of 18 μL. All dilutions were made in TR-FRET assay buffer C. DMSO at 2% final concentration was used as a no-ligand control. Experiment was performed in triplicate, and incubated tier 2 hours in the dark prior to assay read in Perkin Elmer ViewLux ultra HTS microplate reader. FRET signal was measured by excitation at 340 nm and emission at 520 nm for fluorescein and […] for terbium. Fold change over DMSO was calculated using GraphPad Prism Software (La Jolla, Calif.) by calculating 520 nm/490 nm ratio. Graphs were plotted as fold change of FRET signal for compound treatment over DMSO-only control.

PPARG [1] = molecular target: T2, PPARG (Homo sapiens, UniProt P37231); assay: Gal 4 assay (ED50 and % act); assay type: cell-based; settings: for activation at 1 µM: read-out: GL 4% act 1 μM; for activation at 10 µM: read-out: GL 4% act 10 μM
T2 sequence (P37231 204-505): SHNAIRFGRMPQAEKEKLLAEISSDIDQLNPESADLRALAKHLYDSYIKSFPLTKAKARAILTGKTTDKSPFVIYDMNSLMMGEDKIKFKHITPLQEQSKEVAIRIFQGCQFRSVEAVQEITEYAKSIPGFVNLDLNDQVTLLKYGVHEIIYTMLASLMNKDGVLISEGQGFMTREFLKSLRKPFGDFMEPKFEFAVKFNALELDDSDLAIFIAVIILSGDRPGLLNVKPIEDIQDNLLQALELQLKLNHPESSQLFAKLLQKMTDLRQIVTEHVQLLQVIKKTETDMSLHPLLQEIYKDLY

PPARG [2] = assay: Cell-based transactivation assay (PPRE-luciferase reporter co-transfected with PPARG in COS-1 cells); set-up: species or system human or mouse; settings: COS-1 cells
Description: (§1) Cell-Based Transactivation Assay:
(§2) PPRE is a DNA that contains a binding site for PPARG; thus PPRE is a PPAR response element, used herein as a promoter reporter. The binding site is a DR1 response element with the sequence AGGTCA repeated 3 times in tandem and then fused to a construct for luciferase.
(§3) Thus, PPRE is the basis of the cell based transactivation assay described below. The plasmid DNA is co-transfected along with a plasmid for PPARG into COS-1 cells. After an overnight incubation, cells are treated with DMSO or compounds.
(§4) Confluent COS-1 cells were transfected with 4.5 μg murine PPARg2-pSV Sport. or full-length human PPARg-pSport6, 4.5 μg 3×PPRE-luciferase reporter and 27 μL X-treme Gene 9 transfection reagent in serum-free opti-mem media (Gibco), followed by overnight incubation at 37° C., 5% CO2. Transfected cells were plated in white Perkin Elmer 384-well plates and incubated 4 hours. […] After 18 hour incubation, treated cells were developed with Brite Lite Plus (Perkin Elmer) and read in 384-well Luminescence Perkin Elmer En Vision Multilabel plate reader. Graphs were plotted in triplicate in GraphPad Prism Software as fold change of treated cells over DMSO control cells.

PPARG [3] = molecular target: T3, PPARG (UniProt P37231); assay: as above; set-up: species or system human or mouse
T3 construct: PPRE % act 1 μM; other: 1 μM
T3 sequence (P37231 1-505): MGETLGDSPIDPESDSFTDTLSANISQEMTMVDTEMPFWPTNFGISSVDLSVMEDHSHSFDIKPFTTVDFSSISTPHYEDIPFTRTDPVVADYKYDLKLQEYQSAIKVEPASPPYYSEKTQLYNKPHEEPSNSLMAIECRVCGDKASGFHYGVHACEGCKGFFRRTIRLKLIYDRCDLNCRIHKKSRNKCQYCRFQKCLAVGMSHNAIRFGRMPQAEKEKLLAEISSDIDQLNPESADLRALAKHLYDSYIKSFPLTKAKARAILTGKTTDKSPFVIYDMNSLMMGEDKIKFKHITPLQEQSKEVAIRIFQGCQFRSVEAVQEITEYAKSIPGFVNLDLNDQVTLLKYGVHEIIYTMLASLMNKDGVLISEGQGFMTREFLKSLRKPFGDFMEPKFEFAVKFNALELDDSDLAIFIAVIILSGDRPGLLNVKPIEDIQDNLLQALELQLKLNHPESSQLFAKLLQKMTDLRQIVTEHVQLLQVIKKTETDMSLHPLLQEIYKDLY
Description: as §1, §2, §3, §4

IC50 (GST-PPARG-LBD) [nM]	Compound	further results
102	CC(C)CC(C)NC(=O)c1ccc2c(c1)ncn2Cc1ccc(-c2ccccc2C(=O)O)cc1 (centres unmarked) [Compound 14, 4′((5-((4-methylpentan-2-yl)carbamoyl)-1H-benzo[d]imidazol-1-yl)methyl)-[1,1′-biphenyl]-2-carboxylic acid]	activation at 1 µM (PPARG [1]): 7.71%; activation at 10 µM (PPARG [1]): 32.2%
9790	CCOCCNC(=O)c1ccc2c(c1)ncn2Cc1ccc(-c2ccccc2C(=O)O)cc1 [Compound 16, 4′-((5-(2-ethoxyethylcarbamoyl)-1H-benzo[d]imidazol-1-yl)methyl)biphenyl-2-carboxylic acid]	
8740	CC(C)c1cccc([C@H](C)NC(=O)c2ccc3c(c2)ncn3Cc2ccc(-c3ccccc3C(=O)O)nc2)c1 [Compound 27, (S)-2-(5-((5-((1-(3-isopropylphenyl)ethyl)carbamoyl)-1H-benzo[d]imidazol-1-yl)methyl)pyridin-2-yl)benzoic acid]	
2550	CC(C)CCC(C)NC(=O)c1ccc2ncn(Cc3ccc(-c4ccccc4C(=O)O)cc3)c2c1 (centres unmarked) [Compound 20]	
	MRL24 [reference compound]	transactivation of the reporter, of rosiglitazone response (PPARG [2]; relative to rosiglitazone): about 25%
9070	COC(=O)c1ccccc1-c1ccc(Cn2cnc3cc(C(=O)N[C@@H](C)c4cccc(C(C)C)c4)ccc32)cn1 [Compound 28, (S)-methyl 2-(5-((5-((1-(3-isopropylphenyl)ethyl)carbamoyl)-1H-benzo[d]imidazol-1-yl)methyl)pyridin-2-yl)benzoate]	
26.7	CC(C)CCC(C)NC(=O)c1ccc2c(c1)ncn2Cc1ccc(-c2ccccc2C(=O)O)cc1 (centres unmarked) [Compound 13, 4′-((5-(5-methylhexan-2-ylcarbamoyl)-1H-benzo[d]imidazol-1-yl)methyl)biphenyl-2-carboxylic acid]	activation at 1 µM (PPARG [1]): 22.5%; activation at 10 µM (PPARG [1]): 60.5%
9.02	CC(C)CC(C)NC(=O)c1ccc2ncn(Cc3ccc(-c4ccccc4C(=O)O)cc3)c2c1 (centres unmarked) [Compound 19, 4′-((6-(4-methylpentan-2-ylcarbamoyl)-1H-benzo[d]imidazol-1-yl)methyl)biphenyl-2-carboxylic acid]	
2430	CC(C)CCNC(=O)c1ccc2c(c1)ncn2Cc1ccc(-c2ccccc2C(=O)O)cc1 [Compound 18, 4′-((5-(isopentylcarbamoyl)-1H-benzo[d]imidazol-1-yl)methyl)-[1,1′-biphenyl]-2-carboxylic acid]	
15000	COCCCNC(=O)c1ccc2c(c1)ncn2Cc1ccc(-c2ccccc2C(=O)O)cc1 [Compound 15, 4′-((5-(3-methoxypropylcarbamoyl)-1H-benzo[d]imidazol-1-yl)methyl)biphenyl-2-carboxylic acid]	
15700	CC(C)c1cccc([C@H](C)NC(=O)c2ccc3c(c2)ncn3Cc2ccc(-c3ccccc3C(O)C(F)(F)F)cc2)c1 (stereo partly drawn) [Compound 26, N—((S)-1-(3-isopropylphenyl)ethyl)-1-((2′-(2,2,2-trifluoro-1-hydroxyethyl)biphenyl-4-yl)methyl)-1H-benzo[d]imidazole-5-carboxamide]	
	CN(CCOc1ccc(CC2SC(=O)NC2=O)cc1)c1ccccn1 (centres unmarked) [rosiglitazone, reference compound]	activation of the PPRE reporter (PPARG [2]): about 5 fold
4800	Cc1nc2cc(C(=O)N[C@@H](C)c3cccc(C(C)C)c3)ccc2n1Cc1ccc(-c2cccnc2C(=O)O)cc1 [Compound 29, (S)-3-(4-((5-(1-(3-isopropylphenyl)ethylcarbamoyl)-2-methyl-1H-benzo[d]imidazol-1-yl)methyl)phenyl)picolinic acid]	
22100	O=C(NCC1CC1)c1ccc2c(c1)ncn2Cc1ccc(-c2ccccc2C(=O)O)cc1 [Compound 17, 4′-((5 ((cyclopropylmethyl)carbamoyl)-1H-benzo[d]imidazol-1-yl)methyl)-[1,1′-biphenyl]-2-carboxylic acid]	
1830	CC(C)c1cccc([C@H](C)NC(=O)c2ccc3c(c2)ncn3Cc2ccc(-c3ccccc3C(=O)O)cc2)c1 [Compound 22, (S)-4′-((5-(1-(3-isopropylphenyl)ethylcarbamoyl)-1H-benzo[d]imidazol-1-yl)methyl)biphenyl-2-carboxylic acid]	
683	CC(C)c1cccc([C@H](C)NC(=O)c2ccc3c(c2)ncn3Cc2ccc(-c3ccccc3C(=O)O)cc2)c1 [Compound 23]	PPRE % act 1 μM (PPARG [3]; 1 μM): −10.26%; EC50 (PPARG [3]; Table 3): 1.61 nM; activation at 1 µM (PPARG [1]): 12.9%
6490	CC(C)c1cccc([C@H](C)NC(=O)c2ccc3c(c2)ncn3Cc2ccc(-c3ccccc3CO)cc2)c1 [Compound 21, (S)-1-((2′-(hydroxymethyl)biphenyl-4-yl)methyl)-N-(1-(3-isopropylphenyl)ethyl)-1H-benzo[d]imidazole-5-carboxamide]	
2130	CC(C)c1cccc([C@H](C)NC(=O)c2ccc3c(c2)ncn3Cc2ccc(-c3cccnc3C(=O)O)cc2)c1 [Compound 24, (S)-3-(4-((5-(1-(3-isopropylphenyl)ethylcarbamoyl)-1H-benzo[d]imidazol-1-yl)methyl)phenyl)picolinic acid]	
5470	Cc1nc2cc(C(=O)N[C@@H](C)c3cccc(C(C)C)c3)ccc2n1Cc1ccc(-c2ccccc2C(O)C(F)(F)F)cc1 (stereo partly drawn) [Compound 25, N—((S)-1-(3-isopropylphenyl)ethyl)-2-methyl-1-((2′-(2,2,2-trifluoro-1-hydroxyethyl)biphenyl-4-yl)methyl)-1H-benzo[d]imidazole-5-carboxamide]	
